This note sets out measurements from US11345702B1 (Myoforte Therapeutics, Inc., priority 2020, dated 2022).

Chain of 15-PGDH/HPGD (P15428 whole entry): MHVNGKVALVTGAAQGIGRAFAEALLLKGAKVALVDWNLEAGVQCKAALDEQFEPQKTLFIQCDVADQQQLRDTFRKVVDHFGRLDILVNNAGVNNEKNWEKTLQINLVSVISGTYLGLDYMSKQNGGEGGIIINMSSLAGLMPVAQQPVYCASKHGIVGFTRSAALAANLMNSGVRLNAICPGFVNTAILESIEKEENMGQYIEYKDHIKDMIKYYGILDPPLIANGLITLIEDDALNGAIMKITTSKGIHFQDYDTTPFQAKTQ

The target of the experiment is 15-PGDH/HPGD (Homo sapiens (Human), UniProt P15428). The experiment can be described thus: hPGDH inhibitor screening biochemical assay. Particulars: read-out: hPGDH: Average IC50. In short, it runs like this:
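Recombinant human 15-PGDH (10 nM) pre-incubated with compounds 10 min at 37 °C, then 15 μM PGE2 and 0.25 mM NAD+ added for 10 min at room temperature in 50 mM Tris-HCl pH 7.5, 0.01% Tween 20. NADH fluorescence read at ex/em 340/485 nm. IC50 from 10-point curves, four-parameter fit versus 1% DMSO.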
What is called IC50 is the concentration at which inhibition is half-maximal. In the case of `O=C(NCCO)c1cccc(-n2ccc3cc(C(=O)N4CCC(F)(F)CC4)cnc32)c1` [MF-DH-468, 3-(5-(4,4-difluoropiperidine-1-carbonyl)-1H-pyrrolo[2,3-b]pyridin-1-yl)-N-(2-hydroxyethyl)benzamide], the IC50 was below 100 nM. As for `O=C(O)c1ccc(-n2ccc3cc(C(=O)N4CCC(F)(F)CC4)cnc32)nc1` [MF-DH-469], the IC50 is below 100 nM. As to `CC(C)(O)C#Cc1nc2cc(C(=O)N3CCC(F)(F)CC3)cnc2n1-c1ccc(C#N)cc1` [MF-DH-476, 4-(6-(4,4-difluoropiperidine-1-carbonyl)-2-(3-hydroxy-3-methylbut-1-yn-1-yl)-3H-imidazo[4,5-b]pyridin-3-yl)benzonitrile], the IC50 lay in the range of 100 to 1000 nM. In the case of `CCNC(=O)c1ccc(-n2ccc3cc(C(=O)N4CCC(F)(F)CC4)cnc32)nc1` [MF-DH-477, 6-(5-(4,4-difluoropiperidine-1-carbonyl)-1H-pyrrolo[2,3-b]pyridin-1-yl)-N-ethylnicotinamide], the half-inhibitory concentration (IC50) was below 100 nM. For `NC[C@@H]1CN(c2ccc(-n3ccc4cc(C(=O)N5CCC(F)(F)CC5)cnc43)cn2)C(=O)O1` [MF-DH-478] the value was below 100 nM; for `NC[C@@H]1CN(c2cncc(-n3ccc4cc(C(=O)N5CCC(F)(F)CC5)cnc43)c2)C(=O)O1` [MF-DH-479], below 100 nM; for `CS(=O)(=O)NCCNC(=O)c1cccc(-n2ccc3cc(C(=O)N4CCC(F)(F)CC4)cnc32)c1` [MF-DH-480, 3-(5-(4,4-difluoropiperidine-1-carbonyl)-1H-pyrrolo[2,3-b]pyridin-1-yl)-N-(2-(methylsulfonamido)ethyl)benzamide], below 100 nM. For `O=C(c1cnc2c(ccn2-c2cncc(NS(=O)(=O)C3CC3)c2)c1)N1CCC(F)(F)CC1` [MF-DH-484, N-(5-(5-(4,4-difluoropiperidine-1-carbonyl)-1H-pyrrolo[2,3-b]pyridin-1-yl)pyridin-3-yl)cyclopropanesulfonamide] the value was below 100 nM; for `NC(=O)[C@@H]1CCCN1C(=O)c1cccc(-n2ccc3cc(C(=O)N4CCC(F)(F)CC4)cnc32)c1` [MF-DH-486, (S)-1-(3-(5-(4,4-difluoropiperidine-1-carbonyl)-1H-pyrrolo[2,3-b]pyridin-1-yl)benzoyl)pyrrolidine-2-carboxamide], below 100 nM; for `CC(C)(C(N)=O)c1cncc(-n2ccc3cc(C(=O)N4CCC(F)(F)CC4)cnc32)c1` [MF-DH-487, 2-(5-(5-(4,4-difluoropiperidine-1-carbonyl)-1H-pyrrolo[2,3-b]pyridin-1-yl)pyridin-3-yl)-2-methylpropanamide], below 100 nM. For the molecule `O=C(O)[C@@H]1CCCN1C(=O)c1cccc(-n2ccc3cc(C(=O)N4CCC(F)(F)CC4)cnc32)c1` [MF-DH-489, (3-(5-(4,4-difluoropiperidine-1-carbonyl)-1H-pyrrolo[2,3-b]pyridin-1-yl)benzoyl)-L-proline], the half-maximal inhibitory concentration (IC50) was in the range of 100 to 1000 nM. Take `NS(=O)(=O)c1cccc(-n2ccc3cc(C(=O)N4CCC(F)(F)CC4)cnc32)c1` [MF-DH-495]: the IC50 was below 100 nM. Regarding `NS(=O)(=O)c1ccc(-n2ccc3cc(C(=O)N4CCC(F)(F)CC4)cnc32)cc1` [MF-DH-496], the half-maximal inhibitory concentration (IC50) is below 100 nM. Next, `O=C(c1cnc2c(ccn2-c2cccc(C(=O)N3CCS(=O)(=O)C3)c2)c1)N1CCC(F)(F)CC1` [MF-DH-497, (4,4-difluoropiperidin-1-yl)(1-(3-(1,1-dioxidothiazolidine-3-carbonyl)phenyl)-1H-pyrrolo[2,3-b]pyridin-5-yl)methanone]: below 100 nM. Next, `O=C(Nc1cc(C2CC2)[nH]n1)c1cncc(-n2ccc3cc(C(=O)N4CCC(F)(F)CC4)cnc32)c1` [MF-DH-501, N-(5-cyclopropyl-1H-pyrazol-3-yl)-5-(5-(4,4-difluoropiperidine-1-carbonyl)-1H-pyrrolo[2,3-b]pyridin-1-yl)nicotinamide]: below 100 nM; `N#Cc1cc(-n2ccc3cc(C(=O)N4CCC(F)(F)CC4)cnc32)cnc1O` [MF-DH-502]: below 100 nM. `CC(C)(C#N)c1cncc(-n2ccc3cc(C(=O)N4CCC(F)(F)CC4)cnc32)c1` [MF-DH-509, 2-(5-(5-(4,4-difluoropiperidine-1-carbonyl)-1H-pyrrolo[2,3-b]pyridin-1-yl)pyridin-3-yl)-2-methylpropanenitrile]: the concentration for half-maximal inhibition (IC50) was below 100 nM.

With `O=C(c1cnc2c(ccn2-c2cccc(C(=O)N3CC[S+]([O-])C3)c2)c1)N1CCC(F)(F)CC1` (stereo not drawn) [MF-DH-527, (4,4-difluoropiperidin-1-yl)(1-(3-(1-oxidothiazolidine-3-carbonyl)phenyl)-1H-pyrrolo[2,3-b]pyridin-5-yl)methanone], the IC50 was below 100 nM. For `CC(C)(O)CCC#Cc1nc2cc(C(=O)N3CCC(F)(F)CC3)cnc2n1-c1ccc(C#N)cc1` [MF-DH-544, 4-(6-(4,4-difluoropiperidine-1-carbonyl)-2-(5-hydroxy-5-methylhex-1-yn-1-yl)-3H-imidazo[4,5-b]pyridin-3-yl)benzonitrile], the IC50 fell in the range of 100 to 1000 nM. Next, `C[C@H]1CCCN(C(=O)c2cnc3c(ccn3-c3ccc(C(=O)O)cc3)c2)C1` [MF-DH-562, (S)-4-(5-(3-methylpiperidine-1-carbonyl)-1H-pyrrolo[2,3-b]pyridin-1-yl)benzoic acid]: below 100 nM; `O=C(c1ccc2c(ccn2-c2cccc(Cl)c2)c1)N1CCCCC1` [MF-PGDH-004]: below 100 nM. For `O=C(c1ccc2c(c1)c(Cl)cn2-c1cccc(Cl)c1)N1CCCCC1` [MF-PGDH-005] the value was below 100 nM; for `O=C(c1ccc2c(cnn2-c2cccc(Cl)c2)c1)N1CCCCC1` [MF-PGDH-006, (1-(3-chlorophenyl)-1H-indazol-5-yl)(piperidin-1-yl)methanone], below 100 nM; for `O=C(c1ccn2c(-c3cccc(Cl)c3)cnc2c1)N1CCCCC1` [MF-PGDH-007, (3-(3-chlorophenyl)imidazo[1,2-a]pyridin-7-yl)(piperidin-1-yl)methanone], below 100 nM.

As to `COc1ccc(-n2cnc3cc(C(=O)N4CCCCC4)ccc32)cc1` [MF-PGDH-008], the concentration for half-maximal inhibition (IC50) is below 100 nM. Next, `COc1ccc(-n2cnc3cc(C(=O)N4CCC(F)CC4)ccc32)cc1` [MF-PGDH-009]: below 100 nM. Next, `O=C(c1ccc2c(c1)nnn2-c1cccc(Cl)c1)N1CCCCC1` [MF-PGDH-011, (1-(3-chlorophenyl)-1H-benzo[d][1,2,3]triazol-5-yl)(piperidin-1-yl)methanone]: below 100 nM. For `O=C(c1cnc2c(-c3cccc(Cl)c3)cnn2c1)N1CCCCC1` [MF-PGDH-012, (3-(3-chlorophenyl)pyrazolo[1,5-a]pyrimidin-6-yl)(piperidin-1-yl)methanone] the value was below 100 nM; for `O=C(c1cnc2c(ccn2-c2cccc(Cl)c2)c1)N1CCCCC1` [MF-PGDH-014], below 100 nM.

On to `O=C(c1ccc2c(c1)ncn2-c1cccc(Cl)c1)N1CC2CCCC2C1` (stereo not drawn) [MF-PGDH-015], for which the half-inhibitory concentration (IC50) was below 100 nM.

Regarding `O=C(c1ccc2c(c1)ncn2-c1cccc(Cl)c1)N1CCCCCC1` [MF-PGDH-016], the 50% inhibitory concentration (IC50) was below 100 nM. For `O=C(c1ccc2c(c1)ncn2-c1cccc(Cl)c1)N1CC2CC2C1` (stereo not drawn) [MF-PGDH-017], the half-inhibitory concentration (IC50) was in the range of 100 to 1000 nM. Turning to `O=C(c1ccc2c(c1)ncn2-c1cccc(Cl)c1)N1CC2CCC(C2)C1` [MF-PGDH-018], the IC50 is below 100 nM.

`O=C(c1ccc2c(c1)ncn2-c1cccc(Cl)c1)N1CC2(CCC2)C1` [MF-PGDH-019]: the half-inhibitory concentration (IC50) was below 100 nM. Next, `COc1ccc(-n2c(C3CC3)nc3cc(C(=O)N4CCCCC4)ccc32)cc1` [MF-PGDH-021]: 100 to 1000 nM; `COc1ccc(-n2cnc3cc(C(=O)N4CCCCC4)ccc32)nc1` [MF-PGDH-022]: below 100 nM. As to `O=C(c1ccc2c(c1)ncn2-c1cccc(Cl)c1)N1CCCCC1` [MF-PGDH-023], the half-maximal inhibitory concentration (IC50) is below 100 nM.

As to `COc1ccc(-n2cnc3cc(C(=O)N4CCCCC4)ccc32)cc1Cl` [MF-PGDH-024, (1-(3-chloro-4-methoxyphenyl)-1H-benzo[d]imidazol-5-yl)(piperidin-1-yl)methanone], the IC50 is below 100 nM. For `O=C(c1ccc2c(c1)ncn2-c1cccc(Cl)c1)N1CCC(F)(F)CC1` [MF-PGDH-026] the value was below 100 nM. Take `CCOC(=O)c1nc2cc(C(=O)N3CCCCC3)ccc2n1-c1cccc(Cl)c1` [MF-PGDH-027, ethyl 1-(3-chlorophenyl)-5-(piperidine-1-carbonyl)-1H-benzo[d]imidazole-2-carboxylate]: the half-inhibitory concentration (IC50) was below 100 nM. For `CCOC(=O)Cc1nc2cc(C(=O)N3CCCCC3)ccc2n1-c1cccc(Cl)c1` [MF-PGDH-030, ethyl 2-(1-(3-chlorophenyl)-5-(piperidine-1-carbonyl)-1H-benzo[d]imidazol-2-yl)acetate] the value was below 100 nM.

As to `CCOC(=O)CCc1nc2cc(C(=O)N3CCCCC3)ccc2n1-c1cccc(Cl)c1` [MF-PGDH-033, ethyl 3-(1-(3-chlorophenyl)-5-(piperidine-1-carbonyl)-1H-benzo[d]imidazol-2-yl)propanoate], the concentration for half-maximal inhibition (IC50) is below 100 nM. Regarding `O=C(O)CCc1nc2cc(C(=O)N3CCCCC3)ccc2n1-c1cccc(Cl)c1` [MF-PGDH-034, 3-(1-(3-chlorophenyl)-5-(piperidine-1-carbonyl)-1H-benzo[d]imidazol-2-yl)propanoic acid], the 50% inhibitory concentration (IC50) is below 100 nM. For the molecule `NC(=O)CCc1nc2cc(C(=O)N3CCCCC3)ccc2n1-c1cccc(Cl)c1` [MF-PGDH-035, 3-(1-(3-chlorophenyl)-5-(piperidine-1-carbonyl)-1H-benzo[d]imidazol-2-yl)propanamide], the IC50 was below 100 nM. Regarding `O=C(c1ccc(COc2ccccc2Br)cc1)N1CCCCC1` [MF-PGDH-036], the IC50 is below 100 nM.

As to `O=C(c1ccc(COc2ccccc2Cl)cc1)N1CCCCC1` [MF-PGDH-037], the IC50 is below 100 nM. Take `COc1cc(C(=O)N2CCCCC2)ccc1COc1ccccc1Cl` [MF-PGDH-038]: the IC50 is below 100 nM. For `O=C(c1ccc(CSc2ccccc2Cl)cc1)N1CCCCC1` [MF-PGDH-039] the value was below 100 nM.
